Test results: patent US10770169B2, “Method of providing a treatment to a subject based on a dynamic pathway map” (THE REGENTS OF THE UNIVERSITY OF CALIFORNIA, priority 2010, dated 2020)
Read-outs that look alike come from different tables or passages of the source.

Legend:
[1] = system: panel of 55 breast cancer cell lines; experiment: Cell growth inhibition assay (Cell Titer Glo, 72 h, 9 doses; GI50, TGI, LC50); assay type: cell-based, human
[2] = system: luminal, basal, claudin-low and ERBB2AMP breast cancer cell lines; experiment: Associations of clinically relevant subtypes and response (non-parametric ANOVA or t-test on GI50 ranks); assay type: cell-based, human; conditions: for Subtype specificity: Table 6, most sensitive subtype, FDR p<0.20
Excerpt: A central premise of this study is that associations between responses and molecular subtypes observed in preclinical cell line analyses will be recapitulated in the clinic in instances where the predictive molecular features in the cell lines are mirrored in human tumors. We established response-subtype associations by using non-parametric ANOVAs to compare […] values across transcriptional and genomics subtypes.
Differences between GI50s of the groups were compared with a non-parametric ANOVA or t-test, as appropriate, on the ranks. We combined the p-values for the three sets of tests and used false discovery rate (FDR) to correct for multiple testing. For the three-sample test, we performed a post-hoc analysis on the compounds with a significant class effect by comparing each group to all others to determine which group was most sensitive. The p-values for the post-hoc test were FDR-corrected together. In all cases, FDR p<0.20 was deemed significant. […] Analyses were performed in R.

`COc1cc2ncnc(Nc3cccc(Cl)c3)c2cc1OC` [AG1478] gave a GI50 ([1]; 600MPE cell line, censored GI50 values, value is the negative log10 of mol/L) of 3.99, a GI50 ([1]; AU565 cell line, censored GI50 values, value is the negative log10 of mol/L) of 4.57 and a GI50 ([1]; BT474 cell line, censored GI50 values, value is the negative log10 of mol/L) of 6.17. It also gave a GI50 ([1]; BT483 cell line, censored GI50 values, value is the negative log10 of mol/L) of 5.64, a GI50 ([1]; BT549 cell line, censored GI50 values, value is the negative log10 of mol/L) of 4.41 and a GI50 ([1]; CAMA1 cell line, censored GI50 values, value is the negative log10 of mol/L) of 4.46. It also gave a GI50 ([1]; HCC38 cell line, censored GI50 values, value is the negative log10 of mol/L) of 4.03, a GI50 ([1]; HCC202 cell line, censored GI50 values, value is the negative log10 of mol/L) of 5.75 and a GI50 ([1]; HCC1395 cell line, censored GI50 values, value is the negative log10 of mol/L) of 4.57. The GI50 ([1]; HCC1419 cell line, censored GI50 values, value is the negative log10 of mol/L) was 5.92, the GI50 ([1]; HCC1500 cell line, censored GI50 values, value is the negative log10 of mol/L) was 4.58 and the GI50 ([1]; HCC1806 cell line, censored GI50 values, value is the negative log10 of mol/L) was 4.07. The GI50 ([1]; HCC1937 cell line, censored GI50 values, value is the negative log10 of mol/L) was 4.88, the GI50 ([1]; HCC1954 cell line, censored GI50 values, value is the negative log10 of mol/L) was 5.64 and the GI50 ([1]; HCC2185 cell line, censored GI50 values, value is the negative log10 of mol/L) was 4.33. The GI50 ([1]; MDAMB134VI cell line, censored GI50 values, value is the negative log10 of mol/L) was 4.00, the GI50 ([1]; MDAMB157 cell line, censored GI50 values, value is the negative log10 of mol/L) was 4.47 and the GI50 ([1]; MDAMB175VII cell line, censored GI50 values, value is the negative log10 of mol/L) was 6.19. The GI50 ([1]; MDAMB361 cell line, censored GI50 values, value is the negative log10 of mol/L) was 4.71, the GI50 ([1]; MDAMB436 cell line, censored GI50 values, value is the negative log10 of mol/L) was 3.99 and the GI50 ([1]; MDAMB468 cell line, censored GI50 values, value is the negative log10 of mol/L) was 4.02. It also gave a GI50 ([1]; SKBR3 cell line, censored GI50 values, value is the negative log10 of mol/L) of 4.92, a GI50 ([1]; SUM149PT cell line, censored GI50 values, value is the negative log10 of mol/L) of 5.74 and a GI50 ([1]; SUM159PT cell line, censored GI50 values, value is the negative log10 of mol/L) of 4.77. It also gave a GI50 ([1]; SUM1315MO2 cell line, censored GI50 values, value is the negative log10 of mol/L) of 5.60, a GI50 ([1]; T47D cell line, censored GI50 values, value is the negative log10 of mol/L) of 4.74 and a GI50 ([1]; UACC893 cell line, censored GI50 values, value is the negative log10 of mol/L) of 5.65. The GI50 ([1]; cell line 600MPE, value is the negative log10 of mol/L) was 3.99, the GI50 ([1]; cell line AU565, value is the negative log10 of mol/L) was 4.57 and the GI50 ([1]; cell line BT474, value is the negative log10 of mol/L) was 6.17. It also gave a GI50 ([1]; cell line BT483, value is the negative log10 of mol/L) of 5.64, a GI50 ([1]; cell line BT549, value is the negative log10 of mol/L) of 4.41 and a GI50 ([1]; cell line CAMA1, value is the negative log10 of mol/L) of 4.46. The GI50 ([1]; cell line HCC38, value is the negative log10 of mol/L) was 4.03, the GI50 ([1]; cell line HCC70, value is the negative log10 of mol/L) was 3.94 and the GI50 ([1]; cell line HCC202, value is the negative log10 of mol/L) was 5.75. For the same compound, the GI50 ([1]; cell line HCC1143, value is the negative log10 of mol/L) was 3.78, the GI50 ([1]; cell line HCC1187, value is the negative log10 of mol/L) was 3.78 and the GI50 ([1]; cell line HCC1395, value is the negative log10 of mol/L) was 4.57. For the same compound, the GI50 ([1]; cell line HCC1419, value is the negative log10 of mol/L) was 5.92, the GI50 ([1]; cell line HCC1428, value is the negative log10 of mol/L) was 3.78 and the GI50 ([1]; cell line HCC1500, value is the negative log10 of mol/L) was 4.58. The GI50 ([1]; cell line HCC1806, value is the negative log10 of mol/L) was 4.07, the GI50 ([1]; cell line HCC1937, value is the negative log10 of mol/L) was 4.88 and the GI50 ([1]; cell line HCC1954, value is the negative log10 of mol/L) was 5.64. The GI50 ([1]; cell line HCC2185, value is the negative log10 of mol/L) was 4.33, the GI50 ([1]; cell line LY2, value is the negative log10 of mol/L) was 3.78 and the GI50 ([1]; cell line MDAMB134V, value is the negative log10 of mol/L) was 4.00. The GI50 ([1]; cell line MDAMB157, value is the negative log10 of mol/L) was 4.47, the GI50 ([1]; cell line MDAMB175V, value is the negative log10 of mol/L) was 6.19 and the GI50 ([1]; cell line MDAMB361, value is the negative log10 of mol/L) was 4.71. The GI50 ([1]; cell line MDAMB415, value is the negative log10 of mol/L) was 3.78, the GI50 ([1]; cell line MDAMB436, value is the negative log10 of mol/L) was 3.99 and the GI50 ([1]; cell line MDAMB453, value is the negative log10 of mol/L) was 3.78. It also gave a GI50 ([1]; cell line MDAMB468, value is the negative log10 of mol/L) of 4.02, a GI50 ([1]; cell line SKBR3, value is the negative log10 of mol/L) of 4.92 and a GI50 ([1]; cell line SUM52PE, value is the negative log10 of mol/L) of 3.78. It also gave a GI50 ([1]; cell line SUM149PT, value is the negative log10 of mol/L) of 5.74, a GI50 ([1]; cell line SUM159PT, value is the negative log10 of mol/L) of 4.77 and a GI50 ([1]; cell line SUM185PE, value is the negative log10 of mol/L) of 3.78. For the same compound, the GI50 ([1]; cell line SUM1315MO, value is the negative log10 of mol/L) was 5.60, the GI50 ([1]; cell line T47D, value is the negative log10 of mol/L) was 4.74 and the GI50 ([1]; cell line UACC893, value is the negative log10 of mol/L) was 5.65. The GI50 ([1]; cell line ZR75B, value is the negative log10 of mol/L) was 3.78, the GI50 ([1]; cell line ZR751, value is the negative log10 of mol/L) was 3.78 and the “association of response with ERBB2 amplification” value [2] was “positively associated with ERBB2 amplification”. For the same compound, the Subtype specificity [2] was “ERBB2AMP”.

`COc1cc2ncnc(Nc3ccc(F)c(Cl)c3)c2cc1OCCCN1CCOCC1` [Gefitinib] was tested, and the GI50 ([1]; Homo sapiens, AU565, cell line AU565, read-out: GI50 (converted)) was 1.07 µM, the GI50 ([1]; Homo sapiens, BT-474, cell line BT474, read-out: GI50 (converted)) was 0.724 µM and the GI50 ([1]; Homo sapiens, BT-483, cell line BT483, read-out: GI50 (converted)) was 6.17 µM. For the same compound, the GI50 ([1]; Homo sapiens, BT-549, cell line BT549, read-out: GI50 (converted)) was 15.1 µM, the GI50 ([1]; Homo sapiens, CAMA-1, cell line CAMA1, read-out: GI50 (converted)) was 26.9 µM and the GI50 ([1]; Homo sapiens, HCC38, cell line HCC38, read-out: GI50 (converted)) was 28.2 µM. The GI50 ([1]; Homo sapiens, HCC70, cell line HCC70, read-out: GI50 (converted)) was 17.4 µM, the GI50 ([1]; Homo sapiens, HCC1143, cell line HCC1143, read-out: GI50 (converted)) was 11.7 µM and the GI50 ([1]; Homo sapiens, HCC1187, cell line HCC1187, read-out: GI50 (converted)) was 30.2 µM. It also gave a GI50 ([1]; Homo sapiens, HCC1395, cell line HCC1395, read-out: GI50 (converted)) of 7.08 µM, a GI50 ([1]; Homo sapiens, HCC1419, cell line HCC1419, read-out: GI50 (converted)) of 2.75 µM and a GI50 ([1]; Homo sapiens, HCC1428, cell line HCC1428, read-out: GI50 (converted)) of 10.7 µM. The GI50 ([1]; Homo sapiens, HCC1500, cell line HCC1500, read-out: GI50 (converted)) was 8.13 µM, the GI50 ([1]; Homo sapiens, HCC1806, cell line HCC1806, read-out: GI50 (converted)) was 4.68 µM and the GI50 ([1]; Homo sapiens, HCC1937, cell line HCC1937, read-out: GI50 (converted)) was 8.32 µM. For the same compound, the GI50 ([1]; Homo sapiens, HCC1954, cell line HCC1954, read-out: GI50 (converted)) was 2.04 µM, the GI50 ([1]; Homo sapiens, MCF7, cell line MCF7, read-out: GI50 (converted)) was 26.9 µM and the GI50 ([1]; Homo sapiens, MDA-MB-157, cell line MDAMB157, read-out: GI50 (converted)) was 15.1 µM. It also gave a GI50 ([1]; Homo sapiens, MDA-MB-231, cell line MDAMB231, read-out: GI50 (converted)) of 33.1 µM, a GI50 ([1]; Homo sapiens, MDA-MB-361, cell line MDAMB361, read-out: GI50 (converted)) of 6.46 µM and a GI50 ([1]; Homo sapiens, MDA-MB-415, cell line MDAMB415, read-out: GI50 (converted)) of 7.41 µM. It also gave a GI50 ([1]; Homo sapiens, MDA-MB-436, cell line MDAMB436, read-out: GI50 (converted)) of 33.1 µM, a GI50 ([1]; Homo sapiens, MDA-MB-453, cell line MDAMB453, read-out: GI50 (converted)) of 7.41 µM and a GI50 ([1]; Homo sapiens, MDA-MB-468, cell line MDAMB468, read-out: GI50 (converted)) of 25.1 µM. It also gave a GI50 ([1]; Homo sapiens, SK-BR-3, cell line SKBR3, read-out: GI50 (converted)) of 2.82 µM, a GI50 ([1]; Homo sapiens, SUM52PE, cell line SUM52PE, read-out: GI50 (converted)) of 7.94 µM and a GI50 ([1]; Homo sapiens, SUM149PT, cell line SUM149PT, read-out: GI50 (converted)) of 2.88 µM. The GI50 ([1]; Homo sapiens, SUM185PE, cell line SUM185PE, read-out: GI50 (converted)) was 20.9 µM, the GI50 ([1]; Homo sapiens, SUM-159-PT, cell line SUM159PT, read-out: GI50 (converted)) was 8.51 µM and the GI50 ([1]; Homo sapiens, T47D, cell line T47D, read-out: GI50 (converted)) was 15.8 µM. The GI50 ([1]; Homo sapiens, UACC-893, cell line UACC893, read-out: GI50 (converted)) was 1.15 µM, the GI50 ([1]; Homo sapiens, ZR-75-1, cell line ZR751, read-out: GI50 (converted)) was 32.4 µM and the GI50 ([1]; Homo sapiens, ZR-75B, cell line ZR75B, read-out: GI50 (converted)) was 21.4 µM. The GI50 ([1]; Homo sapiens, cell line 600MPE, read-out: GI50 (converted)) was 7.24 µM, the GI50 ([1]; Homo sapiens, cell line HCC2185, read-out: GI50 (converted)) was 9.33 µM and the GI50 ([1]; Homo sapiens, cell line HCC3153, read-out: GI50 (converted)) was 33.1 µM. For the same compound, the GI50 ([1]; Homo sapiens, cell line LY2, read-out: GI50 (converted)) was 27.5 µM, the GI50 ([1]; Homo sapiens, cell line MDAMB134V, read-out: GI50 (converted)) was 30.2 µM and the GI50 ([1]; Homo sapiens, cell line MDAMB175V, read-out: GI50 (converted)) was 0.209 µM. The GI50 ([1]; Homo sapiens, cell line SUM1315MO, read-out: GI50 (converted)) was 2.95 µM, the “association of response with ERBB2 amplification” value [2] was “positively associated with ERBB2 amplification” and the Subtype specificity [2] was “ERBB2AMP”.
